# Assay results published in ChEMBL document CHEMBL1201862, “PubChem BioAssay data set” (2004).
# Structures can show the parent of a compound that is named as a salt. The source made the active and inactive calls.
# Tests used:
# [1] = target: T1, Heat shock factor protein 1 (Mus musculus, UniProt P38532); test: HSF1 potentiators in luciferase reporter cells, confirmation, cell-based, NIH3T3, luminescence, dose retest (AID 435004); assay type: functional;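 note: stress induced by proteasome inhibitor MG132 added 30 min after compound; luciferase reporter driven by HSF1 response element in NIH3T3 cells; actives raise luminescence as potentiators of the MG132 stress response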
# T1 sequence (P38532 whole entry): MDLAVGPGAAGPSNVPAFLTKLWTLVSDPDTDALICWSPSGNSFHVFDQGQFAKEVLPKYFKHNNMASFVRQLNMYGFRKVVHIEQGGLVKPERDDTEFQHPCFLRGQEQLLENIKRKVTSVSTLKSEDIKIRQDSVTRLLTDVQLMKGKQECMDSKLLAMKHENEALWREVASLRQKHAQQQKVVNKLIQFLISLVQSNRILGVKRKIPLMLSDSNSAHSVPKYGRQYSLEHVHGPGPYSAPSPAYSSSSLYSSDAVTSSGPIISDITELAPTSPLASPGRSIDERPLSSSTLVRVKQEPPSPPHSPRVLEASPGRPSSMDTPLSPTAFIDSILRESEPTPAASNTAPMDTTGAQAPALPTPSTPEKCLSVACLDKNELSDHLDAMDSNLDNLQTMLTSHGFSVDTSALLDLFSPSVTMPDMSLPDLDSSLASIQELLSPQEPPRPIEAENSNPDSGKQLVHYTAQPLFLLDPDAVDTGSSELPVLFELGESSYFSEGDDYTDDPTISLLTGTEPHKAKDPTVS
# [2] = test system: INS1; test: beta cell apoptosis inhibitors, cytokine rescue, dose response, luminescence, retest (AID 449756); assay type: functional, cell-based; conditions: Rattus norvegicus;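 note: cell death triggered by IL-1 beta plus TNF-alpha plus IFN-gamma mixture; protective hits raise ATP signal compared with cytokine alone wells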
# [3] = control 3'UTR Renilla luciferase suppression, dose response, counter-screen for Shn3 inhibitor project, cell-based, Clone20-Shn3RL, cherry-picked (AID 624133); assay type: functional
# [4] = target: Galanin receptor type 2 (Homo sapiens, UniProt O43603); test: Dose Response cell-based high-throughput screening assay to identify antagonists of galanin receptor 2 (GALR2). [Related pubchem assays: 828, 866 ]; assay type: functional
# Chain of Galanin receptor type 2 (O43603 whole entry): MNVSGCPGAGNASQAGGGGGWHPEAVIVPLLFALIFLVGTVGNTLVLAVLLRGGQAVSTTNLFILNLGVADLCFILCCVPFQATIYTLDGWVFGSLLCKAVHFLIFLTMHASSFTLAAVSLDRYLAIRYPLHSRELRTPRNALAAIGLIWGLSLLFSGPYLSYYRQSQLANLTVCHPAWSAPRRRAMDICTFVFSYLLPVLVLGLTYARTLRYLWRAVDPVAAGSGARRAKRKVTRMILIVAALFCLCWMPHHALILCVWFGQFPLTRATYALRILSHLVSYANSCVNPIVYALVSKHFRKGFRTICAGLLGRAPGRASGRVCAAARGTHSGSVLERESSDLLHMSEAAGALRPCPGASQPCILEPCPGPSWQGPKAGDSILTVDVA
# [5] = target: T2, Short transient receptor potential channel 4 (Mus musculus, UniProt Q9QUQ5); test: mouse TRPC4 channel activators, dose response, cell-based, HEK293 TRPC4/mu-opioid, Fluo-4 calcium (AID 434937); assay type: functional
# T2 sequence (Q9QUQ5 whole entry): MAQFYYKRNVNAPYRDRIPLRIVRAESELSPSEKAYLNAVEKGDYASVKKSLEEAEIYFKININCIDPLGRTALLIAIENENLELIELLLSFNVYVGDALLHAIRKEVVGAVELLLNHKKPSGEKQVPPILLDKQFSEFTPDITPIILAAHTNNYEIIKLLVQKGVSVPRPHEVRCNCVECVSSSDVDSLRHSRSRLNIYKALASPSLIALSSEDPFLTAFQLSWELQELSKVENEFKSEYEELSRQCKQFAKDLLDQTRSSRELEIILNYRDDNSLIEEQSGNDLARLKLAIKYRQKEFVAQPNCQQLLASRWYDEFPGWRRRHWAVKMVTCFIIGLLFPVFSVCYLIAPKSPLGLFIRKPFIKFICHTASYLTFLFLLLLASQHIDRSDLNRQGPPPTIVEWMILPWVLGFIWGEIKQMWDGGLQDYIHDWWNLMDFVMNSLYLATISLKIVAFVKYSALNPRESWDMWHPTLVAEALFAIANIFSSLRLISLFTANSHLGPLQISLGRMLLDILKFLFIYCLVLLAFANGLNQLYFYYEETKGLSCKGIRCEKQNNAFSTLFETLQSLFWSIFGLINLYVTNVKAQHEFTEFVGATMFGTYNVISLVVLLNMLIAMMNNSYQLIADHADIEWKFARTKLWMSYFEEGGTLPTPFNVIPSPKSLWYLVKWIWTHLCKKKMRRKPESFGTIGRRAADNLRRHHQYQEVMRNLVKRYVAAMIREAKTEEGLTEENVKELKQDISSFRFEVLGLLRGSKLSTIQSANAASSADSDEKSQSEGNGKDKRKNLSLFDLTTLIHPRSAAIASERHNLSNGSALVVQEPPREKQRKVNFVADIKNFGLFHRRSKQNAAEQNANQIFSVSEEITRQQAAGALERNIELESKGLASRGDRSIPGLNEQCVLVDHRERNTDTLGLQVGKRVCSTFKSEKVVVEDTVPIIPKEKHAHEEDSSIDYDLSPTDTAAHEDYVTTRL
# [6] = target: Cytochrome P450 2C9 (Homo sapiens, UniProt P11712)
# Chain of Cytochrome P450 2C9 (P11712 whole entry): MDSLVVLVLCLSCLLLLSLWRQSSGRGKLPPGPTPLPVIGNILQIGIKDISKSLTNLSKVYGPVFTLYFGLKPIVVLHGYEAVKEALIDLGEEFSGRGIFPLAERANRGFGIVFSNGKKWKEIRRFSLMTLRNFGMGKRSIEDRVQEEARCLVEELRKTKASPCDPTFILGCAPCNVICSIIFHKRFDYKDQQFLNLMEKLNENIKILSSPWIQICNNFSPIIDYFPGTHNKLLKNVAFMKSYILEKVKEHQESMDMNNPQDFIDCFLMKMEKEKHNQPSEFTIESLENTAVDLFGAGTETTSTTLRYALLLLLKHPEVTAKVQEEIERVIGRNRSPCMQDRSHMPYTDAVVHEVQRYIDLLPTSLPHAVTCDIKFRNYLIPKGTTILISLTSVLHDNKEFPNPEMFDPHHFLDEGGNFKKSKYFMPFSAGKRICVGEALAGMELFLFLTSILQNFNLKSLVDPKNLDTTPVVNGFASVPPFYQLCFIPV
# [7] = Shn3 3'UTR reporter inhibitors, dose response, cell-based, Clone20 osteoblasts, firefly luciferase, cherry-picked (AID 624132); assay type: functional;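 note: firefly luciferase luminescence from reporter carrying the Shn3 3'UTR in osteoblasts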
# [8] = HepG2 cell cytotoxicity, dose response, cytotoxicity control for Shn3 inhibitor project, CellTiter-Glo, cherry-picked (AID 624134); assay type: functional, cell-based
# [9] = target: Sphingosine 1-phosphate receptor 2 (Homo sapiens, UniProt O95136); test: Dose Response Cell Based Assay for Antagonists of the S1P2 Receptor. [Related pubchem assays: 856, 736 ]; assay type: functional
# Chain of Sphingosine 1-phosphate receptor 2 (O95136 whole entry): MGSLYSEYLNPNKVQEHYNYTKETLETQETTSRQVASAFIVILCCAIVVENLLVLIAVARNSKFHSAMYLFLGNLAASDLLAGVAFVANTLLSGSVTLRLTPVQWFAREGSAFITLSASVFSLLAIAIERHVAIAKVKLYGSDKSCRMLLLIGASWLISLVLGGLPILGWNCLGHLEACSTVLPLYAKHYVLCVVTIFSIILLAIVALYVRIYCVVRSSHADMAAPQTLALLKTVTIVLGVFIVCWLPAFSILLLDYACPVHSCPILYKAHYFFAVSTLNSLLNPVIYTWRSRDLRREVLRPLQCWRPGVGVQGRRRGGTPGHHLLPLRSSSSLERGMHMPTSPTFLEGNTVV
# [10] = target: 14-3-3 protein gamma (Homo sapiens, UniProt P61981); test: modulators of 14-3-3 gamma client binding – dose response (AID 711); assay type: functional
# Chain of 14-3-3 protein gamma (P61981 whole entry): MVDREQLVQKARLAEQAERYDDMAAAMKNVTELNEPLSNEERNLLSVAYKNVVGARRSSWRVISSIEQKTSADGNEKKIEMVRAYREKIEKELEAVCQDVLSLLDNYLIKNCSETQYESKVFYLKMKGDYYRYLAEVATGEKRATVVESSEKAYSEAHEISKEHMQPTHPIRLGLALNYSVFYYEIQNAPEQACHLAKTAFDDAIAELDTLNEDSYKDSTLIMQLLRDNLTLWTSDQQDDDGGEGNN
# [11] = test system: HeLa; test: HeLa cell cytotoxicity, dose response, cytotoxicity control, 24 h, cherry-picked samples (AID 504726); assay type: functional, cell-based; conditions: Homo sapiens;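 note: potency for cytotoxicity as loss of luminescence signal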
# [12] = test system: Streptococcus; test: Group A Streptococcus viability loss, dose response, counter-screen for streptokinase expression inhibitor project, luminescence, BacTiterGlo (AID 1915); assay type: functional, organism-based;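 note: potency for reduction of bacterial viability or growth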
# [13] = test system: Streptococcus sp. 'group A'; test: growth inhibition of control SK(-) GAS strain, dose response, counter-screen for streptokinase expression inhibitor project, luminescence, kanamycin, BacTiterGlo, confirmation (AID 1900); assay type: functional, organism-based
# [14] = target: Keap1/Nrf2 (Homo sapiens, UniProt Q14145); test: Keap1-Nrf2 protein-protein interaction inhibitors, dose response, biochemical, fluorescence polarization, cherry-picked samples (AID 588683)
# Chain of Keap1/Nrf2 (Q16236 whole entry): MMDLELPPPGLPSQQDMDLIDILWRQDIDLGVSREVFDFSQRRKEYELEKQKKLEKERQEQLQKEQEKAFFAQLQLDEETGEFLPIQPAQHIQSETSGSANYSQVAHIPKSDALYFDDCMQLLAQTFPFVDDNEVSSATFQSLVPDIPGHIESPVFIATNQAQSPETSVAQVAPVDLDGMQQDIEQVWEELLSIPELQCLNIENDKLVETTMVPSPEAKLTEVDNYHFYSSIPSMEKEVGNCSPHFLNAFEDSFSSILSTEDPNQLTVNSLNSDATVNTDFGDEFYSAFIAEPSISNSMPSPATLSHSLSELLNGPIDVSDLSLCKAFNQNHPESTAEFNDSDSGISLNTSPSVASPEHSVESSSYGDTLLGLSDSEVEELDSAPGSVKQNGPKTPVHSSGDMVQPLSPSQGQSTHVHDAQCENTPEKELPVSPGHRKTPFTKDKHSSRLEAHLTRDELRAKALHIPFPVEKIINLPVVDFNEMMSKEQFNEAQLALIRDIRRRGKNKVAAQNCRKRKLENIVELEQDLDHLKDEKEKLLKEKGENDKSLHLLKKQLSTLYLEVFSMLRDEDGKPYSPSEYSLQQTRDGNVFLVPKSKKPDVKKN
# Chain of Keap1/Nrf2 (Q14145 whole entry): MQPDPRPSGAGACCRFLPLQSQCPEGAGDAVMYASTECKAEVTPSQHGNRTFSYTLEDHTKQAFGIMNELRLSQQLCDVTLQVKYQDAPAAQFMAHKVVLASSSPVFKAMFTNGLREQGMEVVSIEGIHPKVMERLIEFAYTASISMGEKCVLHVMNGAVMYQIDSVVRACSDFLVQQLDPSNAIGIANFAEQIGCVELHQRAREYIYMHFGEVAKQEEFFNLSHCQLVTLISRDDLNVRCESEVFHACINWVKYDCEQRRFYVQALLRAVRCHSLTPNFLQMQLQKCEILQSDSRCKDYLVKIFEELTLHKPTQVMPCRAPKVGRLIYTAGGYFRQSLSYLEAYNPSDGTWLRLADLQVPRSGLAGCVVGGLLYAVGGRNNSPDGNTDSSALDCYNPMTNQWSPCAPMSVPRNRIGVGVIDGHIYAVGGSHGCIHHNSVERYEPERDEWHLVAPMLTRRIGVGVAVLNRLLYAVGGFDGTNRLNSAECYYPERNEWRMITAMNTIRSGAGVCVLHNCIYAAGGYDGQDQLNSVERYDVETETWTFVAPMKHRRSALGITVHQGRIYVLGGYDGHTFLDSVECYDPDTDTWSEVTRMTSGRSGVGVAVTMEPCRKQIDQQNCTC
# [15] = target: UDP-galactopyranose mutase (Mycobacterium tuberculosis, UniProt P9WIQ1); test: Inhibitors of Mycobacterium tuberculosis UDP-galactopyranose mutase (UGM) enzyme Measured in Biochemical System Using Plate Reader - 2105-02_Inhibitor_Dose_CherryPick_Activity. [Related pubchem assays (depositor defined):AID504439]
# Chain of UDP-galactopyranose mutase (P9WIQ1 whole entry): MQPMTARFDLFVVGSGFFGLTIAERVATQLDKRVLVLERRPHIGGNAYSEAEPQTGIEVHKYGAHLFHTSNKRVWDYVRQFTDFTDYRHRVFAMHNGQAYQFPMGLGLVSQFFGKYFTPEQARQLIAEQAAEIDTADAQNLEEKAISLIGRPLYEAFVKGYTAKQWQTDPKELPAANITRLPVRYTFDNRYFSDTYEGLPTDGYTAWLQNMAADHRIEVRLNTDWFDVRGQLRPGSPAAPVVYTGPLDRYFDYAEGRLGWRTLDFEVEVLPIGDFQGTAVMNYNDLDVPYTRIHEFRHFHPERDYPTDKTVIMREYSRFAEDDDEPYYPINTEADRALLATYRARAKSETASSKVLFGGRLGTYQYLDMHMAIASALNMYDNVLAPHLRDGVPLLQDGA
# [16] = target: Protein S100-A4 (Homo sapiens, UniProt P26447); test: S100A4-myosin IIA binding inhibitor potency, dose response, biochemical, fluorescence polarization, cherry-picked hits (AID 687001); assay type: functional
# Chain of Protein S100-A4 (P26447 whole entry): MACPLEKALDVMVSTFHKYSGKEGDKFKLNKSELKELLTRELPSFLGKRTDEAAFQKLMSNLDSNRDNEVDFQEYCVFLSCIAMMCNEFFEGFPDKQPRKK
# [17] = test system: BJ; test: cytotoxicity toward Ras-transformed BJeLR fibroblasts, dose response, cell-based, alamar blue fluorescence, cherrypicked samples (AID 2631); assay type: functional; conditions: Homo sapiens;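 note: confirmatory dose-response assay in RAS-dependent BJ fibroblasts engineered with TERT, LT and ST, with cytotoxicity read by fluorescence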
# [18] = cytotoxicity in HEK-293T NF-kB-Luc cells, dose response, cytotoxicity control for B/T-cell NF-kB inhibitor project, cell-based, uHTS hits (AID 489019); assay type: functional;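 note: IC50 reflects cytotoxicity as loss of cell viability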
# [19] = target: T3, Apoptotic protease-activating factor 1 (Homo sapiens, UniProt O14727); assay type: functional
# T3 sequence (O14727 whole entry): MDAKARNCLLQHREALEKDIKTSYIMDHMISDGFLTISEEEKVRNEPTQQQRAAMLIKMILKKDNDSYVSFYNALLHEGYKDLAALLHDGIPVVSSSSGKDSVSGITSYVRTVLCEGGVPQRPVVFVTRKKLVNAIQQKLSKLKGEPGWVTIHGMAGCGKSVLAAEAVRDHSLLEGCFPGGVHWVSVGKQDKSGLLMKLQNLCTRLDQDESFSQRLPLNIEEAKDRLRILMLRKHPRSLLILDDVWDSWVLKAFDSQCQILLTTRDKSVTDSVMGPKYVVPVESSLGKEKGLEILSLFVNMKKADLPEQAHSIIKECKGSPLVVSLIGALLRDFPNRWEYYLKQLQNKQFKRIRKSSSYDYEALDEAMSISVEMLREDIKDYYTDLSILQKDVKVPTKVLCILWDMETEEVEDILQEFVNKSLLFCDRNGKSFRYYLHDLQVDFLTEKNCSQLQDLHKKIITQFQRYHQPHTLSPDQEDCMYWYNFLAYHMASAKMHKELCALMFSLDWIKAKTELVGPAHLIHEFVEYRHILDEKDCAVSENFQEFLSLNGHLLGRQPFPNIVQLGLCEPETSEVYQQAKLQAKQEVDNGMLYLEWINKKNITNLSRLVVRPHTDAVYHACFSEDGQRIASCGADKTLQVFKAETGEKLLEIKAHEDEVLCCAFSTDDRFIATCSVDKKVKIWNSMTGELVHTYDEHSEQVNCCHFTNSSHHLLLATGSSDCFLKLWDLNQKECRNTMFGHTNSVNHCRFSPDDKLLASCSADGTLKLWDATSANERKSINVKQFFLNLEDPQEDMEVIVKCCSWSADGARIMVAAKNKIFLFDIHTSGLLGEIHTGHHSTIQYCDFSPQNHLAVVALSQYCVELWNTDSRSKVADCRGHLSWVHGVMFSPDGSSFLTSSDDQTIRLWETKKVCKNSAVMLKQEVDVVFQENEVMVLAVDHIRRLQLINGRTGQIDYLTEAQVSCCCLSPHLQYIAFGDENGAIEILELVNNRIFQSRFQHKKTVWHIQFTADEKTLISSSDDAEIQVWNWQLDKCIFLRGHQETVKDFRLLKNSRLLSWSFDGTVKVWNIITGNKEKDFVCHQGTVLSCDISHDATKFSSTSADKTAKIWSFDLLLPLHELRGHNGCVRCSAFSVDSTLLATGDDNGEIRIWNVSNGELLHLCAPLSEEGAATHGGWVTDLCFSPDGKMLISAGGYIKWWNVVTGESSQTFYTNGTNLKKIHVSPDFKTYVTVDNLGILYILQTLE
# [20] = target: T4, ORF 73 (Human herpesvirus 8, UniProt O40947); test: inhibitors of C-LANA binding to LBS DNA, dose response, biochemical, fluorescence polarization, cherry-picked samples (AID 504725); design: species or system Human gammaherpesvirus 8;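 note: fluorescence polarization of a labeled DNA duplex reporting LANA DNA binding; potency is for inhibitors that block LANA binding to the DNA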
# T4 sequence (O40947 whole entry): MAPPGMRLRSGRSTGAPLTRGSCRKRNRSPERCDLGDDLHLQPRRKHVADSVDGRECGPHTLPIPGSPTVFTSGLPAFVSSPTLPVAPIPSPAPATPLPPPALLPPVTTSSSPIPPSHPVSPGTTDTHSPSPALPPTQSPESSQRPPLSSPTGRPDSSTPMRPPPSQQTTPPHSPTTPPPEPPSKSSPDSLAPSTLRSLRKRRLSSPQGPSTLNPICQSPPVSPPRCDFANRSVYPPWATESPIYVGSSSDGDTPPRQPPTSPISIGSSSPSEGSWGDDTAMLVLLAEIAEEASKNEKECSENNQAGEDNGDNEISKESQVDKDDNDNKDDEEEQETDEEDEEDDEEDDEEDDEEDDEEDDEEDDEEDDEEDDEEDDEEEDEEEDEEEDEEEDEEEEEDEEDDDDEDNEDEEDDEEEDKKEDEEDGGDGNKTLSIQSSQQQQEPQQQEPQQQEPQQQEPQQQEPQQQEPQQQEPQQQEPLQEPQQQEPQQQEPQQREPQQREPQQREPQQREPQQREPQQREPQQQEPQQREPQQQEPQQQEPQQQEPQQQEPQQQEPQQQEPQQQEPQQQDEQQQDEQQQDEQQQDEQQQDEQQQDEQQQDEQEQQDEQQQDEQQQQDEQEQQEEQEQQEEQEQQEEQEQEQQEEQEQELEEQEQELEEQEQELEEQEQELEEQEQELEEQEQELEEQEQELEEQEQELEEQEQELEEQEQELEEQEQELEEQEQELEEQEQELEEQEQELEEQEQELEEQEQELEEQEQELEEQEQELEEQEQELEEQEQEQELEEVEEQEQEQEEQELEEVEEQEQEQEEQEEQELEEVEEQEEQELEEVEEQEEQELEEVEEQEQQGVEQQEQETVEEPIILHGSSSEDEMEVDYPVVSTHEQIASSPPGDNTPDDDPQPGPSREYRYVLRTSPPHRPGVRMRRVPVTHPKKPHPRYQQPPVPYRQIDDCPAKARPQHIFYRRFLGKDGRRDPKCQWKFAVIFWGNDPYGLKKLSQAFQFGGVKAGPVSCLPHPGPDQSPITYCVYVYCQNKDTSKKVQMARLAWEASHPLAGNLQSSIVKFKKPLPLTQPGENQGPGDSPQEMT
# [21] = target: Aryl hydrocarbon receptor (Homo sapiens, UniProt P35869); test: Luminescence-based cell-based high throughput dose response assay for activators of the Aryl Hydrocarbon Receptor (AHR). [Related pubchem assays: 2796 (Primary screen (AHR activators in singlicate)), 2845 (Confirmation screen (AHR activators in triplicate)), 434939 (Counterscreen (PXR activators in triplicate)), 2804 (Summary (AHR activators))]; assay type: ADME
# Chain of Aryl hydrocarbon receptor (P35869 whole entry): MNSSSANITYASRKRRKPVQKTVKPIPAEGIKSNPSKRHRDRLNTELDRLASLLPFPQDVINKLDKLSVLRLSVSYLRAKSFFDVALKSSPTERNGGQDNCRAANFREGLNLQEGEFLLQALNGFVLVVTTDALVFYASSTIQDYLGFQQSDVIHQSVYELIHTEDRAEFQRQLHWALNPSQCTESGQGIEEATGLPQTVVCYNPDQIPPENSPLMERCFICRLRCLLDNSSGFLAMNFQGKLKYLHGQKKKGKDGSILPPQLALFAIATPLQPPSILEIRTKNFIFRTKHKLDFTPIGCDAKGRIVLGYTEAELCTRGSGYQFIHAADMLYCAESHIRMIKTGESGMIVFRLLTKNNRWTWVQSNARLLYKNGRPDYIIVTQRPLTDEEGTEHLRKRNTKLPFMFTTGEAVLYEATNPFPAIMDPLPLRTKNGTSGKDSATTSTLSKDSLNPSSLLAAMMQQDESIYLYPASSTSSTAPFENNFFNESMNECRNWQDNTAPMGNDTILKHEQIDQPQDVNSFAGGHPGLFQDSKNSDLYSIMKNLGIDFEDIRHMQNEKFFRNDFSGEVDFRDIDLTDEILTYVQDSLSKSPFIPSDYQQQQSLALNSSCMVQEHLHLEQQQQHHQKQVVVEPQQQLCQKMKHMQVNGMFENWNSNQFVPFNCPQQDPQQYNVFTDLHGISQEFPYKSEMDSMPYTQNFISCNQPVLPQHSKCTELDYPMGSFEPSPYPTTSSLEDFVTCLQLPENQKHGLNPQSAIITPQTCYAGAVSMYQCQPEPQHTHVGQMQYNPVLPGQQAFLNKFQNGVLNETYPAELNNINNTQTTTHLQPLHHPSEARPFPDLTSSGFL
smiles,measurement,setting,value
Cc1ccc2[nH]c3c(N4CCc5ccccc5C4)ncnc3c2c1,EC50,[1],103 µM (active)
same,AC50,[2],1.38 µM (active)
same,AC50,[3],< 0.26 µM (active)
same,IC50,[4],> 42 µM (not active)
same,EC50,[5],5.96 µM (active)
same,AC50,[6],2.24 µM (inconclusive)
same,AC50,[7],1.18 µM (active)
same,AC50,[8],33.8 µM (active)
same,IC50,[9],3.63 µM (active)
COc1cccc2c1C(=O)c1c(O)c3c(c(O)c1C2=O)C[C@@](O)(C(=O)CO)C[C@@H]3O[C@H]1C[C@H](N)[C@H](O)[C@H](C)O1 [DOXORUBICIN HYDROCHLORIDE],IC50,[10],< 0.781 µM (active)
same,AC50,[11],4.38 µM (active)
same,EC50,[12],3.69 µM (active)
same,EC50,[13],0.518 µM (active)
same,AC50,[14],43.4 µM (active)
same,AC50,[15],32.2 µM (active)
same,AC50,[16],0.323 µM (active)
same,EC50,[17],< 0.104 µM (active)
same,IC50,[18],> 80 µM (inactive)
same,IC50,[19],21.2 µM (active)
same,AC50,[20],1.46 µM (active)
Cc1cccc2cc3c(N)c(C(=O)N4CCOCC4)sc3nc12,EC50,[21],> 3.39 µM (active)
same,EC50,[1],> 260 µM (inactive)
